Experimental data reported in patent US3970648A, “2-[2-(5-Nitro-2-furyl)vinyl]-4-(anilino)quinazolines” (Diamond Shamrock Corporation, priority 1974, dated 1976).

Columns and labels:
[1] = Growth promotion in chicks, Example XI (Table V); type: in vivo, broiler cross chicks; conditions: for feed efficiency (in words) / growth rate (in words): 25 g/T; for Average 4 Week Performance: Feed Efficiency / Average 4 Week Performance: Gain / Improved Response Over Basal Ration: Feed Efficiency / Improved Response Over Basal Ration: Gain: 4 weeks
Description: (§1) This example compares growth promotion activity of the product of Example I with other growth promotants at a concentration of 25 g/T in the Basal Ration described in Example VII. The other growth promotants include the product described in Example I of U.S. Pat. No. 3,542,784 -- Burch and quinoxaline-1,4-dioxide. Day old broiler cross chicks were weight equalized into groups of eight chicks each, and four replicates of eight chicks each were fed the experimental rations over a 4 week period.
The growth promotion tests described in Example X were repeated with the exception that five replicates of eight chicks each were fed the formulations described in Table V for 4 weeks.

[2] = Growth promotion in chicks, Example XII repeat (Table VII); type: in vivo, broiler cross chicks; conditions: for Average 4 Week Performance: Feed Efficiency / Average 4 Week Performance: Gain / Improved Response Over Basal Ration: Feed Efficiency / Improved Response Over Basal Ration: Gain: 25 g/T in basal ration, 4 weeks
Description: as §1
The growth promotion tests described in Example X were repeated with the additional testing the products of Examples II and III.

[3] = Growth promotion in chicks, Example XII first set (Table VI); type: in vivo, broiler cross chicks; conditions: for Average 4 Week Performance: Feed Efficiency / Average 4 Week Performance: Gain / Improved Response Over Basal Ration: Feed Efficiency / Improved Response Over Basal Ration: Gain: 25 g/T in basal ration, 4 weeks; for growth rate / feed efficiency, production parameters (in words): 25 g/T, first set of tests
Description: as §1, with “period. […]” for “period.”

[4] = Growth promotion in chicks at low feed levels, Example VIII (Table II); type: in vivo, broiler cross chicks; conditions: for Average 4 Week Performance: Feed Efficiency / Average 4 Week Performance: Gain / Improved Response Over Basal Ration: Feed Efficiency / Improved Response Over Basal Ration: Gain: 10 g/T in basal ration, 4 weeks
Description: Day old broiler cross chicks were weight equalized into groups of eight chicks each and were placed in battery brooders. The 32 chick treatment groups (four replicates) were fed one of the five rations described below for a 4 week period. Weekly measurements of body weights and feed consumption were made by replicate, and these measurements used to calculate weight gain and feed efficiency.
The basal ration was the basal ration used in Example VII above. The remaining five rations were obtained by mixing the indicated quantities of bacitracin (4 g/T), chlortetracycline (10 g/T), product of Example I (10 g/T), and product of Example III of U.S. Pat. No. 3,542,784 -- Burch (10 g/T) as growth promotants with the basal ration.

[5] = Growth promotion and feed efficiency in chicks, Example VII (Table I); type: in vivo, broiler cross chicks; conditions: for Average 4 Week Performance: Feed Efficiency / Average 4 Week Performance: Gain / Improved Response Over Basal Ration + Bacitracin: Feed Efficiency / Improved Response Over Basal Ration + Bacitracin: Gain: 200 g/T in basal ration + bacitracin (4 g/T), 4 weeks; for significance of improved feed efficiencies (level of probability) / significance of improved weight gains (level of probability): 200 g/T, analysis of variance
Description: One hundred 20 day-old broiler cross chicks were weight equalized into 15 groups of eight chicks each and placed in battery brooders. The 40 chick treatment groups (five replicates) were fed the one of the three rations described below for a 4 week period. Weekly measurements of body weights and feed consumption were made by replicate, and these measurements used to calculate weight gain and feed efficiency.
The commercial type broiler starter basal ration which was used in this study was designated as the Basal Ration, and had the following composition:
The preceding basal ration was mixed with bacitracin at a level of 4 g/T as the only growth stimulant to simulate commercial practice. This mixture was designated as the Basal Ration + Bacitracin (4 g/T) and constituted the negative control in this study.
A second ration was prepared by fortifying the Basal Ration + bacitracin described above with the Product from Example I above at a level of 200 g/T, and was designated as Basal Ration + Bacitracin + Product of Example I (200 g/T). A third ration was prepared by fortifying the Basal Ration + bacitracin described above with chlortetracycline (CTC) at a level of 200 g/T, and was designated as Basal Ration + Bacitracin + Chlortetracycline (200 g/T). Chlortetracycline served as the positive control in this test because it had shown strong growth promotion in numerous previous tests at this therapeutic level.
The commercial value of the product of Example I is indicated by the fact that these significant responses were obtained in addition to the growth stimulation provided by the presence of bacitracin in the ration. It is important to note that the negative controls in this example and in Examples VIII and X which follow were characterized by rapid rates of growth. This high plane of growth and feed efficiency performance on the part of the negative controls makes the responses to the test compounds all the more meaningful.
The term "growth promotion" is used herein to describe the beneficial effect of a compound in eliciting a more rapid rate of weight gain when compared to the weight gain of control animals not fed the compound. "Feed efficiency" is a term regularly used in animal husbandry and is a measure of the pounds of feed required to produce a pound of gain in the weight of the animal. A lower mathmatical value for feed efficiency reflects improved performance. […] In this case, as in the case of the weight gain (fifth column), an improved performance is indicated by a higher positive number.

[6] = Growth rate and feed efficiency in swine, Example XIII (Table VIII); type: in vivo, weanling pigs; conditions: 25 g/T
Description: Thirty-six weanling pigs weighing approximately 30 pounds each in good physical condition and originating from a common source were used in these tests. The pigs were allocated into sex and weight equalized pens of six pigs each. A 1 week period was allowed for acclimatization before testing. Three replicates of six pigs were fed the basal ration described below, and three replicates were fed the same basal ration supplemented with 25 g/T of the product of Example I.
The basal ration was a 17% commercial corn-soya pelletized formulation which was free of antibiotic and drug components. Composition of the basal ration formulation was: […]
The rations were offered ad libitum from six bushel self-feeders with a continuous supply of fresh water. The same ration formulations were used throughout the 6 week feeding period. Individual pig weighing were made after 0, 2, 4 and 6 (termination) week periods. Feed consumption records were kept on a pen basis, with feed efficiency conversion being compiled at the end of the second, fourth and sixth (termination) week of feeding. Complete morbidity and mortality records were kept.

[7] = 25 g/T combined with bacitracin 25 g/T
[8] = 6 weeks, mean of three replicates

O=[N+]([O-])c1ccc(C=Cc2nc(Nc3ccc(O)cc3)c3ccccc3n2)o1 [Example I, 2-[2-(5-nitro-2-furyl)vinyl]-4-(p-hydroxyanilino)quinazoline]
feed efficiency (in words) [1]: substantial improvement in feed efficiency
growth rate (in words) [1]: moderate improvement in growth rate
combination effect (in words) [1, 7]: synergistic effects
Average 4 Week Performance: Feed Efficiency [1, 7]: 1.666
Average 4 Week Performance: Gain [1, 7]: 766.4 g
Improved Response Over Basal Ration: Feed Efficiency [1, 7]: +7.5%
Improved Response Over Basal Ration: Gain [1, 7]: +4.6%
Average 4 Week Performance: Feed Efficiency ([1]; 25 g/T in basal ration): 1.677
Average 4 Week Performance: Gain ([1]; 25 g/T in basal ration): 756.1 g
Improved Response Over Basal Ration: Feed Efficiency ([1]; 25 g/T in basal ration): +6.9%
Improved Response Over Basal Ration: Gain ([1]; 25 g/T in basal ration): +3.2%
Average 4 Week Performance: Feed Efficiency [2]: 1.706
Average 4 Week Performance: Gain [2]: 695.3 g
Improved Response Over Basal Ration: Feed Efficiency [2]: +4.4%
Improved Response Over Basal Ration: Gain [2]: +1.9%
growth rate / feed efficiency, production parameters (in words) ([2]; 25 g/T, second set of tests): moderate improvements in production parameters
Average 4 Week Performance: Feed Efficiency [3]: 1.623
Average 4 Week Performance: Gain [3]: 762.1 g
Improved Response Over Basal Ration: Feed Efficiency [3]: +0.7%
Improved Response Over Basal Ration: Gain [3]: +2.4%
growth rate / feed efficiency, production parameters (in words) [3]: moderate improvements in production parameters
Average 4 Week Performance: Feed Efficiency [4]: 1.671
Average 4 Week Performance: Gain [4]: 750.7 g
Improved Response Over Basal Ration: Feed Efficiency [4]: +5.1%
Improved Response Over Basal Ration: Gain [4]: +4.2%
growth promotion (in words) ([4]; 10 g/T, compared with other growth promotants of the test): greater growth promotion than any of the other growth promotants used in this test
Average 4 Week Performance: Feed Efficiency [5]: 1.597
Average 4 Week Performance: Gain [5]: 739.8 gms
Improved Response Over Basal Ration + Bacitracin: Feed Efficiency [5]: +7.2%
Improved Response Over Basal Ration + Bacitracin: Gain [5]: +6.5%
significance of improved feed efficiencies (level of probability) [5]: 99.9%
significance of improved weight gains (level of probability) [5]: 99.5%
Improved Response Over Basal Ration: Feed Efficiency ([6]; 6 weeks): +2.4%
Improved Response Over Basal Ration: Gain ([6]; 6 weeks): +9.9%
feed efficiency (in words) ([6]; 6 weeks): enhanced feed efficiency
growth improvement (in words) ([6]; 6 weeks): very substantial growth improvement
Avg. Daily Gain [6, 8]: 1.537
Feed/lb. Gain [6, 8]: 2.507
Avg. Daily Gain ([6]; 6 weeks, replicate a): 1.567
Feed/lb. Gain ([6]; 6 weeks, replicate a): 2.722
Avg. Daily Gain ([6]; 6 weeks, replicate b): 1.567
Feed/lb. Gain ([6]; 6 weeks, replicate b): 2.392
Avg. Daily Gain ([6]; 6 weeks, replicate c): 1.476
Feed/lb. Gain ([6]; 6 weeks, replicate c): 2.406
Avg. 6 Wk. Wt. Per Pig ([6]; replicate a): 97.8
Avg. 6 Wk. Wt. Per Pig ([6]; replicate b): 97.6
Avg. 6 Wk. Wt. Per Pig ([6]; replicate c): 93.7

O=[N+]([O-])c1ccc(C=Cc2nc(Nc3cccc(O)c3)c3ccccc3n2)o1 [Example II, 2-[2-(5-nitro-2-furyl)vinyl]-4-(m-hydroxyanilino)quinazoline]
Average 4 Week Performance: Feed Efficiency [2]: 1.672
Average 4 Week Performance: Gain [2]: 696.4 g
Improved Response Over Basal Ration: Feed Efficiency [2]: +6.3%
Improved Response Over Basal Ration: Gain [2]: +2.0%
Average 4 Week Performance: Feed Efficiency [3]: 1.580
Average 4 Week Performance: Gain [3]: 773.0 g
Improved Response Over Basal Ration: Feed Efficiency [3]: +3.3%
Improved Response Over Basal Ration: Gain [3]: +3.9%
growth rate / feed efficiency, production parameters (in words) [3]: moderate improvements

CN(C)[C@@H]1C(O)=C(C(N)=O)C(=O)[C@@]2(O)C(O)=C3C(=O)c4c(O)ccc(Cl)c4[C@@](C)(O)[C@H]3C[C@@H]12 [Chlortetracycline, reference compound]
feed efficiency (in words) [1]: moderate improvements in feed efficiencies
growth rate (in words) [1]: slight improvements in growth rates
Average 4 Week Performance: Feed Efficiency ([1]; 25 g/T in basal ration): 1.717
Average 4 Week Performance: Gain ([1]; 25 g/T in basal ration): 752.5 g
Improved Response Over Basal Ration: Feed Efficiency ([1]; 25 g/T in basal ration): +4.7%
Improved Response Over Basal Ration: Gain ([1]; 25 g/T in basal ration): +2.7%
Average 4 Week Performance: Feed Efficiency [4]: 1.745
Average 4 Week Performance: Gain [4]: 714.2 g
Improved Response Over Basal Ration: Feed Efficiency [4]: +0.9%
Improved Response Over Basal Ration: Gain [4]: -0.9%
Average 4 Week Performance: Feed Efficiency [5]: 1.607
Average 4 Week Performance: Gain [5]: 732.4 gms
Improved Response Over Basal Ration + Bacitracin: Feed Efficiency [5]: +6.6%
Improved Response Over Basal Ration + Bacitracin: Gain [5]: +5.5%
significance of improved feed efficiencies (level of probability) [5]: 99.9%
significance of improved weight gains (level of probability) [5]: 99.5%
